Earlier results, collected in patent publication US20040121961A1, “Uroguanylin and cyclooxygenase-2 inhibitor combinations for inhibition of intestinal cancer” (priority 2004, published 2004).
No end group written: not given here.

How the values were obtained:
[1] = test system: T-84, human colon carcinoma cells; conditions: treatment with uroguanylin; reported in PCT/US00/21998
[2] = test system: Min-mouse, an animal model for human Familial Adenomatous Polyposis (FAP); conditions: oral administration, reported in PCT/US00/21998

uroguanylin: enteric peptide hormone, GC-C receptor agonist; human uroguanylin chemically synthesized by solid phase peptide synthesis (NDDCELCVNVACTGCL; ends and bridges not checked; cysteine pairing not given here; UniProt Q16661 97-112, looked up)
apoptosis in T-84 cells [1]: induction of apoptosis | polyp formation in the intestinal tract [2]: inhibition in polyp formation
